Data: patent EP3255116A1, “COMPOSITIONS COMPRISING A FLUOROOLEFIN” (The Chemours Company FC, LLC, priority 2005, dated 2006)

Legend:
[1] = Kinematic viscosity of lactone compatibilizers; format: physicochemical; conditions: at 40°C
Procedure: Lactone compatibilizers generally have a kinematic viscosity of less than about 7 centistokes at 40°C. […] Lactone compatibilizers may be available commercially or prepared by methods as described in U. S. patent application 10/910,495 filed August 3, 2004, incorporated herein by reference.

[2] = Flammability test ASTM E681-01, lower and upper flammability limit in air (Example 6); format: physicochemical; conditions: 50 percent relative humidity; for flammability: ASTM E681-01, 101 kPa, 100 °C; for LFL: lower flammability limit; for LFL / UFL: ASTM E681-01, 101 kPa (14.7 psia), 100 °C (212 °F); for UFL: upper flammability limit
Procedure: Flammable compounds may be identified by testing under ASTM (American Society of Testing and Materials) E681-01, with an electronic ignition source. Such tests of flammability were conducted on HFC-1234yf, HFC-1225ye and a mixture of the present disclosure at 101 (kPa (14.7 psia), 100 °C (212 °F), and 50 percent relative humidity, at various concentrations in air in order to determine the lower flammability limit (LFL) and upper flammability limit (UFL). The results are given in […]. TABLE 14

| Structure (SMILES) | kinematic viscosity [1] [centistokes] | flammability [2] | LFL [2] | UFL [2] |
| --- | --- | --- | --- | --- |
| CCCCCC[C@H]1C[C@@H](C)OC1=O (relative stereo) [cis-(3-hexyl-5-methyl)dihydrofuran-2-one] | 4.5 |  |  |  |
| C=C(F)C(F)(F)F [HFC-1234yf, 2,3,3;3-tetrafluoropropene] |  | flammable |  |  |
| FC=C(F)C(F)(F)F [HFC-1225ye (100wt%)] |  |  | Non-flammable | Non-flammable |
| FC=C(F)C(F)(F)F [HFC-1225ye, 1,2,3,3,3-pentafluoropropene] |  | reduces the flammability |  |  |
| C=C(F)C(F)(F)F [HFC-1234yf (100 wt%)] |  |  | 5.0 vol % in air | 14.5 vol % in air |
